Calls of active or inactive are those of the source. No cut-off for these calls is given here. Where a SMILES comes first, the peptide text is derived from it. Bridges are numbered along the chain shown (N, C = ends). [ ]: non-standard residue; d: D form. The star is where a group is joined. X1 = CC[C@H](C)CCCCC(=O)*; Dab = NCC[C@H](N)C(=O)O
Columns and labels:
Escherichia coli [1] = experiment: Antibiofilm activity against Escherichia coli ATCC 25922 incubated for 24 hrs by crystal violet staining assay; type: functional, organism-based
Staphylococcus aureus [2] = experiment: Disruption of membrane integrity in Staphylococcus aureus ATCC 25923 assessed as pore formation at 1 times MIC incubated for 0.5 to 2 hrs by scanning electron microscopy; type: functional, organism-based; conditions: time 0.5-2 hrs
Pseudomonas aeruginosa = experiment: Antibacterial activity against Pseudomonas aeruginosa ATCC 27853 at sub-MIC level after 15 passages by broth microdilution assay; type: functional, organism-based
[3] = Toxicity in BALB/C mouse assessed as effect on lung at 19 mg/kg, ip administered as single dose by hematoxylin and eosin staining based assay; type: organism-based; conditions: in vivo
[4] = Toxicity in BALB/C mouse assessed as effect on liver at 19 mg/kg, ip administered as single dose by hematoxylin and eosin staining based assay; type: organism-based; conditions: in vivo
Escherichia coli [5] = experiment: Synergistic antibacterial activity against Escherichia coli ATCC 25922 at 2 times MIC incubated for 18 to 24 hrs in presence of 2 times MIC of polymyxin B by broth microdilution assay based checkerboard assay; type: functional; conditions: time 18-24 hrs
Klebsiella pneumoniae [6] = experiment: Disruption of membrane integrity in Klebsiella pneumoniae ATCC 700603 assessed as content leakage at 1 times MIC incubated for 0.5 to 2 hrs by scanning electron microscopy; type: functional, organism-based; conditions: time 0.5-2 hrs
Staphylococcus aureus [7] = experiment: Antibacterial activity against Staphylococcus aureus ATCC 25923 incubated with 0.2 to 0.02 ug/ml trypsin for 6 hrs followed by bacterial addition and measured after 18 hrs by CLSI based broth dilution method; type: functional, organism-based; conditions: dose 0.2-0.02 µg/ml, time 23.0 hrs
[8] = Toxicity in BALB/C mouse assessed as effect on spleen at 19 mg/kg, ip administered as single dose by hematoxylin and eosin staining based assay; type: organism-based; conditions: in vivo
Staphylococcus aureus [9] = experiment: Disruption of membrane integrity in Staphylococcus aureus ATCC 25923 assessed as content leakage at 1 times MIC incubated for 0.5 to 2 hrs by scanning electron microscopy; type: functional, organism-based; conditions: time 0.5-2 hrs
Klebsiella pneumoniae [10] = experiment: Antibacterial activity against Klebsiella pneumoniae ATCC 700603 incubated with 0.2 to 0.02 ug/ml chymotrypsin for 6 hrs followed by bacterial addition and measured after 18 hrs by CLSI based broth dilution method; type: functional, organism-based; conditions: dose 0.2-0.02 µg/ml, time 23.0 hrs
[11] = Toxicity in BALB/C mouse assessed as induction of inflammatory reaction at 19 mg/kg, ip administered as single dose by hematoxylin and eosin staining based assay; type: organism-based; conditions: in vivo
Klebsiella pneumoniae [12] = experiment: Disruption of membrane integrity in Klebsiella pneumoniae ATCC 700603 assessed as pore formation at 1 times MIC incubated for 0.5 to 2 hrs by scanning electron microscopy; type: functional, organism-based; conditions: time 0.5-2 hrs
Cell membrane [13] = experiment: Disruption of membrane integrity in Klebsiella pneumoniae ATCC 700603 assessed as membrane shrinking at 1 times MIC measured within 0.5 to 2 hrs by scanning electron microscopy; type: subcellular; conditions: Klebsiella pneumoniae 700603, time 0.5-2 hrs
Klebsiella pneumoniae [14] = experiment: Antibiofilm activity against Klebsiella pneumoniae ATCC 700603 incubated for 24 hrs by crystal violet staining based assay; type: functional, organism-based
Staphylococcus aureus [15] = experiment: Antibacterial activity against Staphylococcus aureus ATCC 25923 incubated with 2000 ug/ml chymotrypsin for 6 hrs followed by bacterial addition and measured after 18 hrs by CLSI based broth dilution method; type: functional, organism-based; conditions: dose 2000.0 µg/ml, time 23.0 hrs
Klebsiella pneumoniae [16] = experiment: Antibacterial activity against Klebsiella pneumoniae ATCC 700603 incubated with 2000 ug/ml trypsin for 6 hrs followed by bacterial addition and measured after 18 hrs by CLSI based broth dilution method; type: functional, organism-based; conditions: dose 2000.0 µg/ml, time 23.0 hrs
[17] = Toxicity in BALB/C mouse infected with Klebsiella pneumoniae ATCC 700603 assessed as hepatic hemorrhage at 5 mg/kg, ip by hematoxylin and eosin staining based assay; type: organism-based; conditions: in vivo
Staphylococcus aureus [18] = experiment: Antibacterial activity against Staphylococcus aureus ATCC 25923 incubated with 2000 ug/ml trypsin for 6 hrs followed by bacterial addition and measured after 18 hrs by CLSI based broth dilution method; type: functional, organism-based; conditions: dose 2000.0 µg/ml, time 23.0 hrs
Cell membrane [19] = experiment: Disruption of membrane integrity in Klebsiella pneumoniae ATCC 700603 assessed as membrane swelling at 1 times MIC incubated for 0.5 to 2 hrs by scanning electron microscopy; type: subcellular; conditions: Klebsiella pneumoniae 700603, time 0.5-2 hrs

SMILES	Activity (Escherichia coli [1])	Activity (Staphylococcus aureus [2])	Activity (Pseudomonas aeruginosa)	Activity [3]	Activity [4]	FIC (Escherichia coli [5])	Activity (Klebsiella pneumoniae [6])	Activity (Staphylococcus aureus [7])	Activity [8]	Activity (Staphylococcus aureus [9])	Activity (Klebsiella pneumoniae [10])	Activity [11]	Activity (Klebsiella pneumoniae [12])	Activity (Cell membrane [13])	Activity (Klebsiella pneumoniae [14])	Activity (Staphylococcus aureus [15])	Activity (Klebsiella pneumoniae [16])	Activity [17]	Activity (Staphylococcus aureus [18])	Activity (Cell membrane [19])
NCCCC[C@H](NC(=O)[C@H](CCCCN)NC(=O)[C@H](Cc1c[nH]c2ccccc12)NC(=O)[C@H](CCCCN)NC(=O)[C@H](CCCCN)NC(=O)[C@H](Cc1c[nH]c2ccccc12)NC(=O)[C@H](Cc1c[nH]c2ccccc12)NC(=O)[C@@H](N)CCCCN)C(=O)N[C@@H](Cc1c[nH]c2ccccc12)C(=O)N[C@@H](Cc1c[nH]c2ccccc12)C(N)=O (H-KWWKKWKKWW-NH2)	Dose-Dependent Effect	Active	Active	Toxic	Toxic	0.3125	Active	Active	Toxic	Active	Active	Toxic	Active	Active	Dose-Dependent Effect	–	–	–	–	–
CC[C@H](C)CCCCC(=O)N[C@@H](CCN)C(=O)N[C@H](C(=O)N[C@@H](CCN)C(=O)N[C@H]1CCNC(=O)[C@H]([C@@H](C)O)NC(=O)[C@H](CCN)NC(=O)[C@H](CCN)NC(=O)[C@H](CC(C)C)NC(=O)[C@@H](Cc2ccccc2)NC(=O)[C@H](CCN)NC1=O)[C@@H](C)O (X1-[Dab]T[Dab][Dab][Dab][dF]L[Dab][Dab]T; lactam 4-C)	–	–	–	–	–	–	–	–	–	–	–	–	–	–	–	Active	Active	Toxic	Active	Active

— ChEMBL document CHEMBL4823282, “Novel Broad-Spectrum Antimicrobial Peptide Derived from Anoplin and Its Activity on Bacterial Pneumonia in Mice” (J Med Chem, 2021)
